Data published in patent US8546451B2 (priority 2005, dated 2013).
Marks after values point to notes of the source that are not given here.

Columns and labels:
[1] = molecular target: ER-α ligand binding domain (LBD) (Homo sapiens (Human), UniProt P03372); assay: ER-α competitive radioligand binding assay with [3H]E2; conditions: read-out: ER-α Ki
Description: Following incubation, plates were harvested with GF/B filters on the Unifilter-96 Harvester (PerkinElmer) and washed three times with ice-cold buffer B (50 mM Tris, pH 7.2). The filter plates were dried at room temperature, then 35 μl Microscint-O cocktail was added to each well and the filter plates were sealed with TopSeal-A. Radioactivity was counted in a TopCount® NXT Microplate Scintillation Counter using the settings for ^3H in Microscint cocktail (PerkinElmer).
E2 (determined by incubating with 10^−6 M unlabeled E2) and expressing it as a percentage of the specific binding in the absence of test compound.

[2] = molecular target: rat ER-β (Rattus norvegicus (Rat), UniProt Q62986); assay: ER-β transactivation assay (ERE-LUC) in HEK-293 cells; type: cell-based
rat ER-β, sequence (Q62986 whole entry): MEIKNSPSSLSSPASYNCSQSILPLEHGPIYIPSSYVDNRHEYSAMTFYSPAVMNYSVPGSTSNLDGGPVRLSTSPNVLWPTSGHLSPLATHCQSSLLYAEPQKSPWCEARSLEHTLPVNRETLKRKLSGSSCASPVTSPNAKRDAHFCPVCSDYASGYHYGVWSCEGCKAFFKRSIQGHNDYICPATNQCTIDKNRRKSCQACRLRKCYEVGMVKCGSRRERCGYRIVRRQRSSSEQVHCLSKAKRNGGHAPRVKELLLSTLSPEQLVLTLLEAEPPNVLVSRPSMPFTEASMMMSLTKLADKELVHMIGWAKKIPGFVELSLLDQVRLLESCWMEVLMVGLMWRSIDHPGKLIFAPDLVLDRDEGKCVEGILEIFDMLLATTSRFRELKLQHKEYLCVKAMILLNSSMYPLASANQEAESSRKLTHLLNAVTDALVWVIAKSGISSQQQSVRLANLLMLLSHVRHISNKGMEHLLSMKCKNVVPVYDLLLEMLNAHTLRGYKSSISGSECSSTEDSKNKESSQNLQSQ
Description: Transactivation assays in agonist and antagonist modes were performed to identify whether the compound is an agonist, antagonist or a partial.
Sequencing was performed to determine the absence of any mutations. HEK-293 cells were plated at 100,000 cells per well of a 24 well plate in Dulbecco's Minimal Essential Media (DMEM) +5% charcoal-stripped fetal bovine serum (csFBS). […] Luciferase assays were performed 48 hrs after transfection.

[3] = tested on: estrogen related receptor (ERR-α, ERR-β and ERR-γ); assay: DES versus Compound IV, ERR transactivation (FIG. 12C); type: cell-based
[4] = tested on: serum testosterone; assay: Recovery of testosterone levels following suppression in rats; type: in vivo, Sprague-Dawley rats
Source text: Thirty-five (35) male Sprague-Dawley rats weighing approximately 200 g were maintained on a 12-h light/dark cycle with food (2016 Teklad Global 16% Protein Rodent Diet, Harlan, Madison, Wis.) and water available ad libitum. The animal protocol was reviewed and approved by the Institutional Animal Care and Use Committee of the University of Tennessee.
The test article for this study was weighed and dissolved in PEG 300 (100%) (Acros Organics, NJ) to prepare the appropriate dose formulations. Animals were randomly assigned to one of the ten treatment groups (n =5 animals/group). The animals were housed in groups of 2 to 3 animals per cage. Group 1 was sacrificed at the initiation of the study (Day 1) for determination of baseline testosterone levels in intact animals. Groups 2-7 received daily doses of 1, 3, or 30 mg/kg via oral gavage (˜200 uL) for three days. Groups 2, 3, and 4 were sacrificed on Day 4 to measure maximal testosterone suppression. Groups 5, 6, and 7 were allowed to recover for 14 days with a drug free washout period.

[5] = tested on: circulating androgen (primarily testosterone and dihydrotestosterone); assay: Suppression and recovery of androgen levels in intact male monkeys; type: in vivo, Cynomolgus monkeys; parameters: circulating androgen levels: unit not given here
Description: The effect of Compound IV on suppression and recovery of testosterone levels in intact male monkeys was evaluated in conjunction with an oral pharmacokinetic study. Three treatment naïve male Cynomolgus monkeys (2 to 3 years old) were administered Compound IV at 30 mg/kg daily by oral gavage for 7 consecutive days. Blood samples were collected and divided into serum and plasma for testosterone and Compound IV quantitative measurements, respectively.

[6] = tested on: rat bone, organ weight, and serum hormone parameters; assay: Bone preservation despite reduction of LH and testosterone in rats; type: in vivo; conditions: for Bone Mineral Density / FSH / LH / Levator Ani Muscle weight / Percent Bone Volume (BV/TV) / Prostate weight / Seminal Vesicles weight: Intact
[7] = tested on: morphine dependent rat model; assay: Hot flashes in morphine dependent rat model (tail skin temperature); type: in vivo; conditions: morphine withdrawal model
Description: FIG. 13 depicts effect of Compound IV on attenuation of hot flashes in morphine withdrawal model with 5 mg/kg, 10 mg/kg, 15 mg/kg and 30 mg/kg dosages. N=7 animals per group. 17β-E2 was used at 5 mg/kg in 100% DMSO. (See Example 14.)
In addition to the similarities to the human condition, this experimental animal model has a short turn around time which makes it a useful high throughput screening tool for identifying compounds that can alleviate vasomotor symptoms using the tail skin temperature (TST). TST probes TA-40 (Data Sciences International, MN) were taped to the base of the tails and baseline temperatures were obtained for 15 minutes. After 15 minutes the animals were treated with naloxone (1 mg/kg, SQ) to reverse the effects of the morphine. Tail skin temperature (TST) was measured for one hour post-naloxone treatment with a sampling frequency of 5 secs throughout the course of the experiment. Following the data acquisition, the moving average of the temperature recorded every 60 seconds for each animal was calculated and further analyzed. Baseline temperature was computed as the average temperature acquired over the 15 minutes preceding naloxone administration. The area under the curve (AUC) was calculated by subtracting all the values post-naloxone administration from the baseline using a linear trapezoid method.

[8] = Oral bioavailability in rats; type: in vivo
Description: Formulations using polyethylene glycol 300 (PEG300) generally produced higher exposures than microemulsions prepared in Tween 80 diluted in deionized water. […] Importantly, in dogs the exposure in the male 30 mg/kg PEG300 oral dose group exceeded the exposure necessary to produce the maximal effect on prostate reduction in the rat model of LH suppression.

[9] = Neuropharmacological and pulmonary safety pharmacology; conditions: in vivo
[10] = Mutagenicity
[11] = tested on: dogs; assay: Single and repeated oral administration toxicity in dogs; type: in vivo
Source text: Compound IV was well-tolerated by rats and dogs after single and repeated oral administration (up to 28 days).

ER-α ligand binding domain (LBD), sequence (P03372 whole entry, looked up, species assumed, the tested form may be a part): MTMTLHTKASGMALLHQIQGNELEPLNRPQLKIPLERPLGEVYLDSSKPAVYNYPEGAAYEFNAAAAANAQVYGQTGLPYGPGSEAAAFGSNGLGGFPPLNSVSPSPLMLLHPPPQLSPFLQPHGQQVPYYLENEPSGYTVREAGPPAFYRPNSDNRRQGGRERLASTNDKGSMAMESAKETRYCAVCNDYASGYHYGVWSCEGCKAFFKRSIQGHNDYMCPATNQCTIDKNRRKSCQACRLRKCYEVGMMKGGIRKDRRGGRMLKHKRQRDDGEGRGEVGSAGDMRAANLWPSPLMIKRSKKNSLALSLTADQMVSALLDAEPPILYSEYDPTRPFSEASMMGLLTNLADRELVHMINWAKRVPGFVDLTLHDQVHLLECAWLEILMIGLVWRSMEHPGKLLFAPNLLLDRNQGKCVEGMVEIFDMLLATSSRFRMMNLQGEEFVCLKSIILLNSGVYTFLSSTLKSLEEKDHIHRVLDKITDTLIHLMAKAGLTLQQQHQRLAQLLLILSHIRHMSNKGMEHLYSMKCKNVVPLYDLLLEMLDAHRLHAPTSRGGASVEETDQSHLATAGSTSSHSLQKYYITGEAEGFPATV

**Q.** With `O=C(c1ccc(O)c(F)c1)N(c1ccc(O)cc1)c1ccc(F)cc1` [Compound IV, 3-fluoro-N-(4-fluorophenyl)-4-hydroxy-N-(4-hydroxyphenyl)benzamide] as the molecule, how does the Ki [1] read?
**A.** 21.7 ± 1.7 nM

**Q.** What about the “ERβ activity in transient transfection assays” value [2] of the same molecule?
**A.** agonist

**Q.** And the “antagonist effects on estradiol-stimulated transcriptional activation” value ([2]; estradiol 1 nM, concentrations up to 10 μM)?
**A.** no antagonist effects were observed

**Q.** What about the “effect on ERR transactivation” value [3] of the same molecule?
**A.** failed to crossreact

**Q.** And the serum testosterone levels ([4]; 1 mg/kg oral for three days, after 14 day recovery)?
**A.** 3.3 ± 1.92 ng/mL

**Q.** What about the serum testosterone suppression ([4]; 1 mg/kg oral for three days, no recovery) of the same molecule?
**A.** No significant suppression

**Q.** What about the serum testosterone levels ([4]; 3 mg/kg oral for three days, after 14 day recovery) of the same molecule?
**A.** 3.00 ± 1.06 ng/mL

**Q.** What about the serum testosterone levels ([4]; 3 mg/kg oral for three days, no recovery, baseline 6.4±3.1) of the same molecule?
**A.** 1.47 ± 0.26 ng/mL

**Q.** And the serum testosterone levels ([4]; 30 mg/kg oral for three days, after 14 day recovery)?
**A.** 3.8 ± 1.72 ng/mL

**Q.** And the serum testosterone levels ([4]; 30 mg/kg oral for three days, no recovery, baseline 6.4±3.1)?
**A.** 1.62 ± 0.49 ng/mL

**Q.** What about the “reversibility of pharmacologic castration” value ([4]; rats, within 14 days of recovery) of the same molecule?
**A.** reversible

**Q.** And the “decrease of circulating androgen levels compared to baseline” value ([5]; 30 mg/kg daily oral gavage for 7 days)?
**A.** up to 47%

**Q.** What about the circulating androgen levels ([5]; Day 2, 30 mg/kg daily oral gavage, mean±SEM) of the same molecule?
**A.** 997±104

**Q.** And the circulating androgen levels ([5]; Day 6, 30 mg/kg daily oral gavage, mean±SEM)?
**A.** 852±136

**Q.** What about the circulating androgen levels ([5]; after 18-day drug-free recovery period) of the same molecule?
**A.** 1757.7±369.5

**Q.** And the “Bone Mineral Density” value ([6]; 1 mg/kg per day oral)?
**A.** 0.273^b g/cm^3

**Q.** What about the FSH ([6]; 1 mg/kg per day oral) of the same molecule?
**A.** 14.1^a,b ng/mL

**Q.** And the LH ([6]; 1 mg/kg per day oral)?
**A.** 0.820^b ng/mL

**Q.** And the “Levator Ani Muscle weight” value ([6]; 1 mg/kg per day oral)?
**A.** 80.0^a,b % of Intact

**Q.** What about the “Percent Bone Volume (BV/TV)” value ([6]; 1 mg/kg per day oral) of the same molecule?
**A.** 20.0^b %

**Q.** What about the Prostate weight ([6]; 1 mg/kg per day oral) of the same molecule?
**A.** 69.2^a,b % of Intact

**Q.** And the “Seminal Vesicles weight” value ([6]; 1 mg/kg per day oral)?
**A.** 44.6^a,b % of Intact

**Q.** And the “Bone Mineral Density” value ([6]; 10 mg/kg per day oral)?
**A.** 0.326^a,b g/cm^3

**Q.** And the FSH ([6]; 10 mg/kg per day oral)?
**A.** 5.48^a,b ng/mL

**Q.** What about the LH ([6]; 10 mg/kg per day oral) of the same molecule?
**A.** 0.060^a,b ng/mL

**Q.** What about the “Levator Ani Muscle weight” value ([6]; 10 mg/kg per day oral) of the same molecule?
**A.** 58.1^a % of Intact

**Q.** What about the “Percent Bone Volume (BV/TV)” value ([6]; 10 mg/kg per day oral) of the same molecule?
**A.** 25.9^a,b %

**Q.** What about the Prostate weight ([6]; 10 mg/kg per day oral) of the same molecule?
**A.** 30.7^a,b % of Intact

**Q.** What about the “Seminal Vesicles weight” value ([6]; 10 mg/kg per day oral) of the same molecule?
**A.** 12.8^a,b % of Intact

**Q.** What about the “Bone Mineral Density” value ([6]; 30 mg/kg per day oral) of the same molecule?
**A.** 0.326^a,b g/cm^3

**Q.** What about the FSH ([6]; 30 mg/kg per day oral) of the same molecule?
**A.** 6.32^a,b ng/mL

**Q.** What about the LH ([6]; 30 mg/kg per day oral) of the same molecule?
**A.** 0.078^a,b ng/mL

**Q.** What about the “Levator Ani Muscle weight” value ([6]; 30 mg/kg per day oral) of the same molecule?
**A.** 56.1^a % of Intact

**Q.** What about the “Percent Bone Volume (BV/TV)” value ([6]; 30 mg/kg per day oral) of the same molecule?
**A.** 25.5^a,b %

**Q.** And the Prostate weight ([6]; 30 mg/kg per day oral)?
**A.** 30.1^a,b % of Intact

**Q.** What about the “Seminal Vesicles weight” value ([6]; 30 mg/kg per day oral) of the same molecule?
**A.** 14.4^a,b % of Intact

**Q.** And the “dose levels with significant reduction of LH” value ([6]; intact animals)?
**A.** ≥ 10 mg/kg per day

**Q.** What about the “bone loss associated with LH suppression” value ([6]; intact male rats, orally administered) of the same molecule?
**A.** completely prevented the bone loss

**Q.** What about the “dose with the best results” value [7] of the same molecule?
**A.** 10 mg

**Q.** And the “effect on hot flushes” value ([7]; 5, 10, 15 and 30 mg/kg (FIG. 13))?
**A.** attenuated hot flushes

**Q.** What about the “absorption following oral dosing” value [8] of the same molecule?
**A.** rapidly absorbed

**Q.** What about the bioavailability ([8]; rat, in vivo, po, depending on the formulation) of the same molecule?
**A.** 6 to 25%

**Q.** What about the “neuropharmacological or pulmonary effects” value [9] of the same molecule?
**A.** No neuropharmacological or pulmonary effects were observed

**Q.** What about the mutagenicity [10] of the same molecule?
**A.** not mutagenic

**Q.** And the tolerability ([11]; dogs, single and repeated oral administration (up to 28 days))?
**A.** well-tolerated

**Q.** And the “pathologic changes in kidney, liver, heart and other non-target-related organs” value ([11]; dogs, up to 28 days oral)?
**A.** no pathologic changes observed

**Q.** What about the toxicity findings ([11]; male or female dogs, oral, up to 28 days) of the same molecule?
**A.** no serious physical signs, body weight effects, clinical pathology changes, ophthalmologic, electrocardiographic, or histopathologic changes
